Assays:
[1] = Stabilisation of dibenzoylmethane UV filters against decomposition by UV light; format: physicochemical; conditions: no method or figures given
From the text: The invention furthermore relates to the stabilisation of UV filters. A known and effective class of light-protection filter substances is formed by dibenzoylmethane derivatives. However, it is disadvantageous that these substances are very easily decomposed by UV light, and their protective properties are thus lost. An example of a light-protection filter from this class of compounds which is available on the market is 4-(tert-butyl)-4′-methoxydibenzoylmethane, which has the following structure: [drawing 18]

[2] = 2,2-diphenyl-1-picrylhydrazyl (DPPH) assay, free-radical scavenging; format: biochemical; conditions: for free-radical scavenger / antioxidant properties compared with tocopherol (vitamin E): DPPH assay, same experimental set-up; for Absorbance in %, based on absorbance without THBC: 515 nm, 25° C., 1 cm, constant absorbance
From the text: The performance of the DPPH assay is described in Brand-Williams, W., Cuvelier, M. E. & Berset, C. […] Gamez, E. J. et al. “Antioxidant flavonoid glycosides from Daphniphyllum calycinum”; J. Nat. Prod.
2,2-Diphenyl-1-picrylhydrazyl is a free radical which is stable in solution. The unpaired electron results in a strong absorption band at 515 nm, and the solution has a dark violet colour. In the presence of a free-radical scavenger, the electron is paired, the absorption disappears, and the decoloration proceeds stoichiometrically taking into account the electrons taken up. The absorbance is measured in a photometer. The anti-free-radical property of the substance to be tested is determined by measuring the concentration at which 50% of the 2,2-diphenyl-1-picrylhydrazyl employed has reacted with the free-radical scavenger. This concentration is expressed as EC50, a value which can be considered to be a property of the substance under the given measurement conditions. The substance investigated is compared with a standard (for example tocopherol).
In addition, the slope of the straight lines in the linear region is determined and the EC50 calculated.
A 70 μM stock solution of 2,2-diphenyl-1-picrylhydrazyl (DPPH) in ethanol was prepared. Such amounts of 4,6,3′,4′-tetrahydroxybenzylcoumaranone (THBC) were added to aliquots of this solution so as to give the THBC/DPPH ratios indicated in Table 1. The absorbance was in each case measured at 515 nm, 25° C. and 1 cm, with Table 1 in each case indicating the value measured at constant absorbance. The values are plotted graphically against one another in FIG. 1, with the molar ratio being plotted on the x axis and the measured absorbance as a relative proportion of the absorbance measured for the stock solution (100%) being plotted on the y axis.

- stabilisation action for dibenzoylmethanes [1]: particularly high stabilisation action
Structure (SMILES): O=C1c2c(O)cc(O)cc2OC1Cc1ccc(O)c(O)c1 (centres unmarked) [THBC, 4,6,3′,4′-tetrahydroxybenzylcoumaranone]
- free-radical scavenger / antioxidant properties compared with tocopherol (vitamin E) [2]: better free-radical scavenger properties than tocopherol
- free-radical scavenger / antioxidant properties compared with tocopherol (vitamin E) ([2]; listed as 4,6,3′,4′-Tetrahydroxycoumaranone): more potent antioxidant than tocopherol
- Absorbance in %, based on absorbance without THBC ([2]; THBC/DPPH 0.01): 97.66%
- Absorbance in %, based on absorbance without THBC ([2]; THBC/DPPH 0.02): 94.04%
- Absorbance in %, based on absorbance without THBC ([2]; THBC/DPPH 0.05): 87.02%
- Absorbance in %, based on absorbance without THBC ([2]; THBC/DPPH 0.07): 79.15%
- Absorbance in %, based on absorbance without THBC ([2]; THBC/DPPH 0.10): 72.13%
- Absorbance in %, based on absorbance without THBC ([2]; THBC/DPPH 0.12): 62.72%
- Absorbance in %, based on absorbance without THBC ([2]; THBC/DPPH 0.18): 44.18%
- Absorbance in %, based on absorbance without THBC ([2]; THBC/DPPH 0.24): 26.08%
- Absorbance in %, based on absorbance without THBC ([2]; THBC/DPPH 0.30): 16.16%
- Absorbance in %, based on absorbance without THBC ([2]; THBC/DPPH 0.37): 15.73%
- Absorbance in %, based on absorbance without THBC ([2]; THBC/DPPH 0.43): 15.27%
- Absorbance in %, based on absorbance without THBC ([2]; THBC/DPPH 0.49): 15.27%
- Absorbance in %, based on absorbance without THBC ([2]; THBC/DPPH 0.55): 15.27%
- Absorbance in %, based on absorbance without THBC ([2]; THBC/DPPH 0.61): 15.05%
- Absorbance in %, based on absorbance without THBC ([2]; THBC/DPPH 0.73): 14.19%
- Absorbance in %, based on absorbance without THBC ([2]; THBC/DPPH 0.97): 14.56%
- Absorbance in %, based on absorbance without THBC ([2]; THBC/DPPH 1.21): 14.56%

From patent US6903134B2, “Formulation comprising benzofuranone derivatives for protection against oxidative stress” (Merck Patent GmbH, priority 2000, dated 2005)
